“Also recorded” adds a separate entry of the source.
Tests used:
[1] = test system: mBMDCs; test: Cell viability / cytotoxicity in mBMDCs (MTT); format: cell-based, mouse; conditions: for cytotoxicity of Ca influx inhibitors / chelators in mBMDC culture: 48 hours culture; for toxicity in exosome-depleted FBS medium: mBMDCs, 10 μM, 48 hours, MTT
Method: FIGS. 30A-30B. […] After 48 hours incubation, cell viability was determined by MTT assay.
mBMDCs (10^5 cells/200 μL/well) were treated with 10 and 5 μM of a test compound in 96-well plates overnight. After 18 hours of drug treatment, MTT (0.5 mg/ml) was added to each well. The cells were lysed after 6-8 hours incubation, and absorbance values at 570 and 650 nm were measured. PrestoBlue reagent (#A13261, Thermo Fisher Scientific) was used for cell viability assay in CD63 HTS as described earlier.
Cell viability assay. mBMDCs (2×10^6 cells/200 μL/well in RPMI1640 supplemented with dialyzed 10% FBS, or 1.5×10^6 cells/200 μL/well in RPMI1640 supplemented with 10% exosome depleted FBS) were treated with 10 μM of each test compound in 96-well plates. After 46-48 hours of compound treatment, MTT (0.5 mg/mL) was added to each well. The cells were lysed after overnight incubation, and absorbance values at 570 and 650 nm were measured.

[2] = test system: mBMDCs; test: EV release from mBMDCs (differential ultracentrifugation, MRPS); conditions: 10 μM, 46-48 h, vs Veh
[3] = test system: mBMDCs; test: Intracellular Ca2+ influx (Fura-2/Fura-8) in mBMDCs; format: cell-based, mouse; conditions: 10 μM, vs Veh 0.5% DMSO / #634
[4] = test system: CD63-Tluc-CD9-EmGFP THP-1 reporter cells; test: CD63 Tluc-CD9 EmGFP THP-1 reporter cell assay (EV/exosome release); format: cell-based, human; conditions: 634 analogs 10 μM, 48 hours
Method: (§1) All these analogs were evaluated for induction of IL-12 cytokine at 10 μM, followed by dose response IL-12 induction for selected analogs. These analogs were also evaluated for exosome release by quantitating EV release in the supernatant post 48 hours incubation with CD63-Tluc-CD9-EmGFP THP-1 reporter cells.
In the HTS using CD63-Tluc-CD9EmGFP reporter cells (CD63 HTS), PMA (10 ng/ml) was used as a positive control (Shpigelman et al., 2021) and 0.5% DMSO was used as negative control (vehicle, Veh). Briefly, the harvested cells were resuspended in assay media containing 10% exosome-depleted […] (#A2720801, Thermo Fisher Scientific) and plated at 2×10^5 cells/mL (50 μL/well of 384-well plates) (#3674, Corning). Test compounds were added at a final concentration of 10 μM to cells and incubated for 48 hours at 37° C. Subsequently, the plate was centrifuged, supernatant (25 μL) was transferred, and chemiluminescent was measured as recombinant luciferase activity (RLU) after 10 minutes incubation with TurboLuc assay reagent (TurboLuc™ One-Step Glow Assay kit, Thermo Fisher Scientific). The response that measures activation and subsequent release of EVs was calculated using the following formula; % response=100×(compound RLU−average Veh RLU)/(average PMA RLU−average Veh RLU). The viability of cells was assessed using PrestoBlue reagent (Thermo Fisher Scientific). Briefly, PrestoBlue reagent (2.5 μl) was added to the remaining cells and incubated for 30 minutes at room temperature, followed by fluorescence readout at (Ex 560 nm/Em 590 nm) which was normalized to fluorescence data of the Veh wells within the plate to obtain “% viability” calculated as 100×(compound fluorescence/average Veh fluorescence).
CD63 Tluc-CD9 EmGFP THP-1 reporter cell assay. CD63 Tluc CD9 EmGFP THP-1 reporter cell (designated as CD63 Tluc reporter cells) were incubated with 10 μM test compounds, ION (1 μM), or 0.5% DMSO (negative control) in the RPMI 1640 supplemented with exosome-depleted FBS at 5×10^4 cells in 200 μL/well for a 96-well plate for 48 hours at 37° C. Subsequently, the plate was centrifuged, the supernatant was transferred, and chemiluminescence was measured by TurboLuc™ Luciferase One-Step Glow Assay Kit. The response that measures activation and subsequent release of EVs was calculated using the following formula; % response=100×(compound RLU−average Veh RLU)/(average PMA RLU−average Veh RLU).

[5] = test system: mBMDCs; test: IL-12 induction in mBMDCs (ELISA); format: cell-based, mouse; conditions: 10 μM / dose response
Method: as §1
mBMDCs (10^5 cells/200 μL/well) were plated in wells of 96-well plates and treated with test compound (5 μM or 10 μM) or vehicle (0.5% DMSO) overnight.

[6] = test system: TLR4; test: TLR4 agonism in murine and human HEK-TLR4 reporter cells; format: cell-based
Description: FIG. 37. TLR4 agonism assays with analogs of 2B182c in human and murine TLR4 reporter cells.

| SMILES | intracellular Ca^2+ influx by 634 and its SAR analogs (Fura-2) [3] | TLR4 agonistic activity [6] | also measured |
| --- | --- | --- | --- |
| Cc1nnsc1C(=O)Nc1ccc(-n2nc(C(F)(F)F)cc2C(F)(F)F)cc1 [BTP2, reference compound] |  |  | cytotoxicity of Ca influx inhibitors / chelators in mBMDC culture [1]: cytotoxic; number of EV particles released in the culture supernatant [2]: increased EV release by mBMDC |
| Cc1sc(NS(=O)(=O)c2cccc3nsnc23)c(C(=O)O)c1C [2H013, 2-(benzo[c][1,2,5]thiadiazole-4-sulfonamido)-4,5-dimethylthiophene-3-carboxylic acid] | did not induce Ca^2+ influx in mBMDCs; also recorded: negative |  | luciferase activities in the culture supernatant of CD63 Tluc reporter cells [4]: did neither increase luciferase activities |
| Clc1ccc(-c2nnc(-c3cccnc3)o2)cc1 [#1311] |  |  | IL-12 induction [5]: as potent as #645 |
| Cc1sc(NS(=O)(=O)c2cccc3c2N=S=N3)c(C(=O)OC(C)C)c1C [2G179c, Isopropyl 2-(benzo[c][1,2,5]thiadiazole-4-sulfonamido)-4,5-dimethylthiophene-3-carboxylate] | increased intracellular Ca^2+ levels more than that of #634; also recorded: Ca^2+ influx positive |  |  |
| Cn1c2ccc(-c3ccco3)cc2c2nc(SCC(=O)NC3CCCCC3)n(-c3cccc(N)c3)c(=O)c21 [2G023a] |  | equipotent to compound 28182c |  |
| COc1ccc(-c2nnc(-c3cccnc3)o2)cc1OC [#1310] |  |  | IL-12 induction [5]: as potent as #645 |
| Cc1sc(NS(=O)(=O)c2cccc3nsnc23)c(C(=O)OC2CCCCC2)c1C [2G179e, Cyclohexyl 2-(benzo[c][1,2,5]thiadiazole-4-sulfonamido)-4,5-dimethylthiophene-3-carboxylate] |  |  | toxicity in exosome-depleted FBS medium [1]: higher toxicity |
| CCCCCCOC(=O)c1c(NS(=O)(=O)c2cccc3nsnc23)sc(C)c1C [2G179b, Hexyl 2-(benzo[c][1,2,5]thiadiazole-4-sulfonamido)-4,5-dimethylthiophene-3-carboxylate] | increased intracellular Ca^2+ levels more than that of #634 |  | toxicity in exosome-depleted FBS medium [1]: higher toxicity |
| CCCCCCCC/C=C\CCCCCCCC(=O)OC[C@H](COP(=O)(O)OCCNC(=O)CCCC(=O)Oc1cccc(-n2c(SCC(=O)NC3CCCCC3)nc3c4cc(-c5ccco5)ccc4n(C)c3c2=O)c1)OC(=O)CCCCC/C=C\CCCCCCCC [2G177] |  | slightly less potent than 2G053; also recorded: the potency at the highest concentration was better |  |
| Cn1c2ccc(-c3ccco3)cc2c2nc(SCC(=O)NC3CCCCC3)n(-c3cccc(O)c3)c(=O)c21 [2G053] |  | equipotent to compound 28182c |  |
| CC(=O)Oc1cccc(-n2c(SCC(=O)NC3CCCCC3)nc3c4cc(-c5ccco5)ccc4n(C)c3c2=O)c1 [2G107] |  | potent |  |
| Cc1sc(NS(=O)(=O)c2cccc3nsnc23)c(C(=O)OC(C)(C)C)c1C [2G179 h, Tert-butyl 2-(benzo[c][1,2,5]thiadiazole-4-sulfonamido)-4,5-dimethylthiophene-3-carboxylate] |  |  | toxicity in exosome-depleted FBS medium [1]: higher toxicity |
| CCCCCCCCC(=O)Nc1cccc(-n2c(SCC(=O)NC3CCCCC3)nc3c4cc(-c5ccco5)ccc4n(C)c3c2=O)c1 [2G113] |  | did not retain equal potency |  |
| c1ccc(-c2cn(-c3cncc(-c4cccs4)c3)nn2)cc1 [2H050] |  |  | IL-12 induction [5]: significantly enhanced cytokine IL-12 induction |
| O=C(O)CN(CCOCCOCCN(CC(=O)O)CC(=O)O)CC(=O)O [EGTA, reference compound] |  |  | cytotoxicity of Ca influx inhibitors / chelators in mBMDC culture [1]: cytotoxic; also recorded: toxic; number of EV particles released in the culture supernatant [2]: increased EV release by mBMDC; also recorded: enhanced particle release from dead and dying cells |
| Cc1sc(NS(=O)(=O)c2cccc3nsnc23)c(C(=O)Oc2ccccc2)c1C [2G179g, Phenyl 2-(benzo[c][1,2,5]thiadiazole-4-sulfonamido)-4,5-dimethylthiophene-3-carboxylate] | lost potency; also recorded: Ca^2+ influx positive |  |  |
| CC(=O)Nc1cccc(-n2c(SCC(=O)NC3CCCCC3)nc3c4cc(-c5ccco5)ccc4n(C)c3c2=O)c1 [2G112] |  | did not retain equal potency |  |
| CCCOC(=O)c1c(NS(=O)(=O)c2cccc3c2N=S=N3)sc(C)c1C [2G176, Propyl 2-(benzo[c][1,2,5]thiadiazole-4-sulfonamido)-4,5-dimethylthiophene-3-carboxylate] | Ca^2+ influx positive |  |  |
| CCOC(=O)c1c(N(C)S(=O)(=O)c2cccc3c2N=S=N3)sc(C)c1C [2F186, Ethyl 4,5-dimethyl-2-(N-methylbenzo[c][1,2,5]thiadiazole-4-sulfonamido)thiophene-3-carboxylate] | did not induce Ca^2+ influx in mBMDCs; also recorded: negative |  | luciferase activities in the culture supernatant of CD63 Tluc reporter cells [4]: did neither increase luciferase activities |
| Cn1c2ccc(-c3ccco3)cc2c2nc(SCC(=O)NC3CCCCC3)n(-c3ccc(O)c(O)c3)c(=O)c21 [2E255] |  | completely inactive |  |
| COC(=O)c1c(NS(=O)(=O)c2cccc3c2N=S=N3)sc(C)c1C [2G179a, Methyl 2-(benzo[c][1,2,5]thiadiazole-4-sulfonamido)-4,5-dimethylthiophene-3-carboxylate] | Ca^2+ influx positive |  |  |
| CCCCCCCCC(=O)Oc1cccc(-n2c(SCC(=O)NC3CCCCC3)nc3c4cc(-c5ccco5)ccc4n(C)c3c2=O)c1 [2G108] |  | potent |  |
| CCNC(=O)c1c(NS(=O)(=O)c2cccc3c2N=S=N3)sc(C)c1C [2E241, 2-(benzo[c][1,2,5]thiadiazole-4-sulfonamido)-N-ethyl-4,5-dimethylthiophene-3-carboxamide] | loss of potency; also recorded: did not induce Ca^2+ influx in mBMDCs; also recorded: negative |  | luciferase activities in the culture supernatant of CD63 Tluc reporter cells [4]: did neither increase luciferase activities |
| Cc1sc(NS(=O)(=O)c2cccc3nsnc23)c(C(=O)OCCC(C)C)c1C [2G179d, Isopentyl 2-(benzo[c][1,2,5]thiadiazole-4-sulfonamido)-4,5-dimethylthiophene-3-carboxylate] | increased intracellular Ca^2+ levels more than that of #634 |  | toxicity in exosome-depleted FBS medium [1]: higher toxicity |
| Cn1c2ccc(-c3ccco3)cc2c2nc(SCC(=O)NC3CCCCC3)n(-c3cccc(OCOP(=O)(O)O)c3)c(=O)c21 [2G202] |  | weakly active |  |
| Cc1sc(NS(=O)(=O)c2cccc3nsnc23)c(C(=O)OCc2ccccc2)c1C [2G179f, Benzyl 2-(benzo[c][1,2,5]thiadiazole-4-sulfonamido)-4,5-dimethylthiophene-3-carboxylate] |  |  | toxicity in exosome-depleted FBS medium [1]: higher toxicity |
| CC(=O)OCOC(=O)CN(CC(=O)OCOC(C)=O)c1ccccc1OCCOc1ccccc1N(CC(=O)OCOC(C)=O)CC(=O)OCOC(C)=O [BAPTA-AM, reference compound] |  |  | cytotoxicity of Ca influx inhibitors / chelators in mBMDC culture [1]: cytotoxic; also recorded: toxic; number of EV particles released in the culture supernatant [2]: increased EV release by mBMDC; also recorded: enhanced particle release from dead and dying cells |
| Cc1cc(NS(=O)(=O)c2cccc3nsnc23)sc1C [2G182] | loss of potency |  |  |

— US20250281465A1, “MOLECULES THAT ENHANCE EXTRACELLULAR VESICLE RELEASE” (priority 2022, published 2025)
